Assay results published in patent publication US5626864A, “Preparation of colloidal aqueous solutions of active substances of low solubility” (priority 1993, dated 1997).
In brackets after ≈: the same amount, converted by molar mass. Where a name gives a salt, the structure may show the parent alone. Read-outs that look alike come from different tables or passages of the source.

Tests used:
[1] = Sterile filtration through a 0.2 μm filter (criterion for successful solubilization); assay type: physicochemical
Description: The following examples illustrate the invention. The criterion for successful solubilization is the possibility of sterile filtration through a 0.2 μm filter.
(§1) 40 mg of Z were dissolved in 10 ml of dichloromethane/methanol (9+1). All the solvent was removed again from the solution in a rotary evaporator under reduced pressure. 8 ml of a buffer solution (consisting of o-phsophoric acid [0.01 M] and sucrose [0.265 M] and EDTA disodium salt [0.1 mg/ml], pH about 1.9) were added to the residue, and the flask was rotated on the rotary evaporator (without reducing the pressure) with the water at 50° C for 1 h. […] Cooling to room temperature was followed by titration with 2 molar sodium hydroxide solution to pH 6.8, and the total volume was then made up to 10 ml with the abovementioned buffer solution (pH 6.8; titrated with NaOH). […] The clear supernatant was filtered through a 0.2 micrometer syringe filter, and the active substance concentration in this solution was determined by spectrophotometry.
(§2) The experiment was carried out like experiment A but 1.0 g of phospholipid (egg lecithin E 100, from Lipoid KG, Ludwigshafen) was weighed in addition to the active substance.
(§3) The experiment was carried out like experiment B, but after addition of the buffer solution (pH 1.9) and stirring at 50° C. (1 h), 100 microliters of a dilute aqueous solution of glacial acetic acid (120.1 g/l) were added, and this solution was then titrated to pH 4.6 with sodium hydroxide solution (2 molar).
The pH was adjusted to 4.8.

[2] = Active substance content of solution after 0.2 μm filtration (spectrophotometry); assay type: physicochemical
Description: A derivative of these bisnaphthalimides [drawing 1] was used to investigate the solubility in aqueous formulations as follows: […]
as §1, with “spectrophotometry. The active substance content in this solution was below 0.1 mg/ml.” for “spectrophotometry.”
as §2, §3

[3] = Physical stability of the solutions (precipitation / flocculation); assay type: physicochemical
Description: as §1, with “spectrophotometry. The active substance content in this solution was below 0.1 mg/ml.” for “spectrophotometry.”
as §2
The active substance content of the solution which had been titrated to pH 6.8 and sterilized by filtration was 4.0 mg/ml. The solution slowly flocculated out after about 12-24 h, both at room temperature and in a refrigerator.
as §3

[4] = cited from earlier work
[5] = eg. intravenous administration; cited from earlier work
[6] = Comparative Example: like Example 1, experiment C

For `O=C(C(c1ccccc1)c1ccccc1)N1CCN(CC(O)COc2cccc3ncccc23)CC1` (stereo not drawn), the sterile filtration [1] was “It was possible to sterilize the resulting solution by filtration”.
With `O=C1c2cccc3cc([N+](=O)[O-])cc(c23)C(=O)N1CCCCNCCCN1C(=O)c2cccc3cc([N+](=O)[O-])cc(c23)C1=O` [Z] the solubility ([2]; Experiment C: egg lecithin E 100, acetic acid, titrated to pH 4.6, sterile filtration) was 4000 µg/mL (≈ 6.72 mM), the solubility ([2]; egg lecithin e 100 solution, Experiment B (comparative): 1.0 g egg lecithin E 100, titrated to pH 6.8, sterilized by filtration) was 4000 µg/mL (≈ 6.72 mM) and the solubility ([2]; sucrose/phosphoric acid buffer, Experiment A (comparative): no phospholipid, sucrose/phosphoric acid, titrated to pH 6.8, 0.2 μm filtered) was under 100 µg/mL. The “dissolution in acidic buffer” value ([3]; Experiment A: buffer pH about 1.9, 50° C, 1 h, no phospholipid) was “It was possible in this way to dissolve a considerable portion of the active substance”, the precipitation on titration ([3]; Experiment A: no phospholipid, cooled, titrated to pH 6.8) was “Most of the active substance precipitated again” and the “time to flocculation of solution” value ([3]; Experiment B: egg lecithin, pH 6.8, room temperature and refrigerator) was 12 to 24 h. The stability of solution ([3]; Experiment C: egg lecithin, pH 4.6, room temperature and refrigerator) was “stable for weeks without flocculating out”.
In the case of `CCS(=O)(=O)Oc1ccc2c(C)c(C)c(=O)oc2c1` [esuprone], the solubility in water ([4]; water) is listed as 15 µg/mL (≈ 0.0531 mM), the “filtration through 0.2 μm or 0.45 μm filter” value [1, 6] is listed as “could not be filtered either through a 0.2 μm filter or through a 0.45 μm filter” and the “particle size of resulting solution” value [1, 6] is listed as “contained large colloidal particles”.
For `CC(C)[C@@](C#N)(CCCN(C)CCc1ccccc1)c1ccccc1` [levemopamil hydrochloride], the “local intolerance on administration” value [5] is given as “show problems due to local intolerance on administration (eg. vein irritation on intravenous administration)” and the solubility in water ([4]; in words) is given as “adequately soluble in water”.
For dolastatin 15, the solubility in water ([4]; in words) is given as “low solubility in water” and the sterile filtration ([1]; Example 3: active substance 10 mg/ml, phospholipid 100 mg/ml) is given as “It was possible to sterilize the solution by filtration”.
